Reference: US7662782B2, “Melanocortin 1 receptor selective compounds” (Action Pharma A/S, priority 1998, dated 2010)
Each block holds one molecule with its values, some of them ahead of it. Square brackets hold non-standard residues; d marks the D form. Ends that are not written are not given here. Peptide text beside a SMILES is read from it.

Assays:
human MC3-receptor = target: T1, human MC3-receptor (Homo sapiens, UniProt P41968); test: Competition for [125I]NDP-MSH binding to recombinant human MC3-receptor in COS cells; settings: for Ki: [125I]NDP-MSH competition, transfected COS cells
T1 construct: expressed in transfected cells; host or cells: COS (COS-1) cells, transient, 48 h
T1 sequence (P41968 whole entry): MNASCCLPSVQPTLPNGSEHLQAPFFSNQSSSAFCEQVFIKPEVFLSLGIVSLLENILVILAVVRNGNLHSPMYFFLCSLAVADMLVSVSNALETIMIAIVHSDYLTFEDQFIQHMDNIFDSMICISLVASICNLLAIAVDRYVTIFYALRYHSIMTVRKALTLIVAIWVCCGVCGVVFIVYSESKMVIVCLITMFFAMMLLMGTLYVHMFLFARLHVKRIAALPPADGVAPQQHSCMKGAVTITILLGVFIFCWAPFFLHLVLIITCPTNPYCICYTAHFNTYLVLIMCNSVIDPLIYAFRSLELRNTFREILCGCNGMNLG
Protocol: (§1) Expression of receptor clones. Human MC1- and MC5-receptor DNAs (Chhajlani and Wikberg 1992; Chhajlani et al., 1993), cloned into the expression vector pRc/CMV (InVitrogen Corp., USA), and human MC3- and human MC4-receptor DNAs (Gantz et al., 1993a & b), cloned into the expression vector pCMV/neo, were used. COS cells were grown and transfected with receptor clones as described (Schiöbth et al. 1995, 1996b). After transfection cells were cultivated for 48 h, detached from the Petri dishes, and used for radioligand binding as described (Schiöth et al. 1995, 1996b).
(§2) Binding studies. […] The competition data were analyzed by fitting it to the logistic function using non-linear regression analysis. The Ki-values were then calculated from the thus obtained IC50-values by using the Cheng and Prusoff equation, essentially as described by Schiöth et al. 1995, 1996b.

human MC4-receptor = target: T2, human MC4-receptor (Homo sapiens, UniProt P32245); test: Competition for [125I]NDP-MSH binding to recombinant human MC4-receptor in COS cells; settings: for Ki: [125I]NDP-MSH competition, transfected COS cells
T2 construct: expressed in transfected cells; host or cells: COS (COS-1) cells, transient, 48 h
T2 sequence (P32245 whole entry): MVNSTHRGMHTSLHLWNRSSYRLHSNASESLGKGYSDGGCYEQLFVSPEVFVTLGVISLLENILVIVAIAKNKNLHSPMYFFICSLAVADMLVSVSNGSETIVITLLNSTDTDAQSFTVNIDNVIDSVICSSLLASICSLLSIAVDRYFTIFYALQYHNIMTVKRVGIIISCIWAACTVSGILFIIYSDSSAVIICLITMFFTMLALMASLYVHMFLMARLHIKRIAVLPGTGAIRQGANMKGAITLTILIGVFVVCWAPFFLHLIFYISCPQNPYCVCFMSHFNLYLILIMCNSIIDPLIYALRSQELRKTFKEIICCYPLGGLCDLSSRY
Protocol: as §1, §2

human MC1-receptor [1] = target: T3, human MC1-receptor (Homo sapiens, UniProt Q01726); test: Stimulation of cAMP formation in B16G4F cells stably expressing human MC1-receptors; format: cell-based; design: expressed in transfected cells; settings: for Fold stimulation of cAMP: vs untreated control cells, mean ± SD of 3 experiments
T3 sequence (Q01726 whole entry): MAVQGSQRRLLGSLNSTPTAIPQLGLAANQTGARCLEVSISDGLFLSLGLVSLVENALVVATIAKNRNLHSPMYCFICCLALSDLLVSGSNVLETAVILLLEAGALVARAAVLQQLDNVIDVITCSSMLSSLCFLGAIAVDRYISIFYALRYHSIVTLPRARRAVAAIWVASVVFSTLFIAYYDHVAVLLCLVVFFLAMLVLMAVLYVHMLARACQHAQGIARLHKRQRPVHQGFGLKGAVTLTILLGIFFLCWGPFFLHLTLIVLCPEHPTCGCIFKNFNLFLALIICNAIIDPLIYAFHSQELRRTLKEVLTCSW
Protocol: Human MC1-receptors had been cloned earlier into pZeoSV (Invitrogen) (Szardenings et al., 1997). The resulting vectors were used for transformation of the amelanotic mouse melanoma cell line B16G4F that lacks the mouse MC1-receptors (Solca et al., 1993) using liposomes (Campbell, 1995) as described previously (Schiöth et al., 1997b). Cells were cultivated in Dulbecco's modified Eagle's medium with 10% fetal calf serum at 7% CO2 for 24 hours and seeded on large plates in the same medium containing 300 μg/ml Zeocin. The medium was exchanged every 4-5 days until cell foci appeared. Single foci were isolated and grown under antibiotic selection.
For cAMP measurements the cells were detached from 60-80% confluent adherent cultures using Hank's balanced salts containing 0.5 mM EDTA and incubated for 30-60 min at 37° C. in ordinary growth medium containing 0.5 mM of the phosphodiesterase inhibitor 3-isobutyl-1-methyl-xanthine (IBMX). 20 μl aliquots of appropriate dilutions of test compounds in growth medium were prepared in 96 well microtitre plates and placed in a water bath at 37° C. For the stimulation about 1.5×10^5 cells in 180 μl were quickly added to each well to obtain immediate mixing. After 20 min 20 μl of 4.4 M perchloric acid were added, mixed, neutralized after a few minutes by addition of 20 μl base (5 M KOH, 1 M Tris) and centrifuged.
20 μl of acid treated supernatant obtained above were mixed with 50 μl buffer (100 mM Tris-Cl, 250 mM NaCl, 10 mM EDTA, 0.1% mercaptoethanol, 0.5 mM IBMX, pH=7.4) containing 0.01 μCi [^3H]cAMP (Amersham, 1.04 TBq/mmol, 1 μCi/μl, product no.: TRK304). 200 μl of the same buffer containing a 1:16 diluted porcine adrenal gland bark extract (prepared as described by Nordstedt and Fredholm, 1990) were added and the microtitre plates were incubated for at least 2 hours at 4° C. A standard curve was prepared in the same manner with dilutions of cAMP covering the range 2 μM -0.5 nM.
After completion of incubation the solutions were filtered over GF-B glassfibre filters (Whatman) and washed briefly with ca. 2 ml ice-cold washing buffer (50 mM Tris-Cl, pH=7.4). Radioactivity on the filters was measured after-addition of scintillation liquid. Stimulation experiments were determined in quadruplicates and standard curves in duplicates.

human MC1-receptor [2] = target: T3, human MC1-receptor; test: Competition for [125I]NDP-MSH binding to recombinant human MC1-receptor in COS cells; design: expressed in transfected cells; host or cells: COS (COS-1) cells, transient, 48 h; settings: [125I]NDP-MSH competition, transfected COS cells
Protocol: as §1, §2

human MC5-receptor = target: T4, human MC5-receptor (Homo sapiens, UniProt P33032); test: Competition for [125I]NDP-MSH binding to recombinant human MC5-receptor in COS cells; settings: for Ki: [125I]NDP-MSH competition, transfected COS cells
T4 construct: expressed in transfected cells; host or cells: COS (COS-1) cells, transient, 48 h
T4 sequence (P33032 whole entry): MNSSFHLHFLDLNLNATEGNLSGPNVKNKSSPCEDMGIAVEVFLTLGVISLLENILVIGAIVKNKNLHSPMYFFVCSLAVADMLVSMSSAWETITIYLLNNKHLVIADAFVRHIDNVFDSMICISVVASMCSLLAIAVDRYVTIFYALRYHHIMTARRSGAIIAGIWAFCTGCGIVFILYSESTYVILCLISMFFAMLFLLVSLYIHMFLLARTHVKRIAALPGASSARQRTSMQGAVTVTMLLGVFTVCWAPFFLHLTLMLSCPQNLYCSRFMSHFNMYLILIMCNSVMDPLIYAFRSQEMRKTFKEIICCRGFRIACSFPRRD
Protocol: as §1, §2

BALB/C mice = test: DNFB contact hypersensitivity in BALB/C mice (paw oedema, blood cell counts); format: in vivo, mouse; settings: for inhibition of paw oedema: daily, vs DNFB animals not given MS05
Protocol: Marked positive treatment effects were found upon administration of MS05 to BALB/C mice. Animals were sensitized by injection of 2,4-dinitrofluorobenzene (DNFB). First 30 μL of 0.5% DNFB was administered to the shaved abdomen of the mice and after 4 days 10 μL of 0.3% DNFB was challenged to one paw, another paw being unchallenged and serving as a control. MS05 was administered, using a solution of MS05 in 0.9% saline, intraperitonally two hours before sensitization, and then the same dose was given intra-peritonally for four consecutive days, each dose of MS05 amounting to 0.05, 0.25, 0.37, 0.5 and 0.75 mg/kg. […] Therefore the compound of the invention is in a further sense immunomodulatory.

[3] = tested on: mouse RAW 264.7 macrophage cells; test: Stimulation of cAMP-formation in mouse RAW 264.7 macrophage cells; format: cell-based; settings: FIG. 5; both peptides at similar potencies and efficacies
Protocol: RAW 264.7 cells were grown as described in Example 6. cAMP was determined essentially as described in Example 5.

[4] = tested on: human microvascular endothelial cells (HMEC-1 cells); test: TNF α induced adhesion molecule expression in HMEC-1 cells; format: cell-based; settings: TNF α 10 ng/mL
Protocol: In further tests the MS05 or MS09 was administered to human microvascular endothelial cells (HMEC-1 cells; Department of Health & Human Services, Centres for Disease Control and Prevention, Atlanta, Ga. 30333, USA) in vitro. […] In this context by ICAM-1 is intended intercellular adhesion molecule type 1, by VCAM is intended vascular adhesion molecule, and by E-Selectin is intended endothelial selectin (Sluiter et al, J. Cardiovasc. Pharmacol. 1993, 22 Suppl 4: S37-44, Elangbam et al., Vet. Pathol. 1997 Jan. 34(1): 61-73).

[5] = tested on: mouse RAW 264.7 macrophage cells; test: Inhibition of nitric oxide production in LPS/interferon gamma stimulated RAW 264.7 cells; format: cell-based; settings: FIG. 6; 100 ng/mL LPS + 5 units/mL interferon gamma, 16 h; potencies and efficacies similar to α-MSH
Protocol: RAW 264.7 cells (TIB-71), obtained from American Type Culture Collection, 12301 Parklawn Drive, Rockville, Md., 20852, USA, and cultured in Dulbecco's modified Eagle medium (Gibco, BRL) supplemented with 10% heat-inactivated fetal bovine serum, 100 IU penicillin/ml and 100 μg streptomycin/ml at 37° C. in a humidified atmosphere of 95% air and 5% CO2. Cells grown in monolayers were detached from the culture flasks and collected by low speed centrifugation (700×g). […]
Nitric oxide was measured by monitoring the nitrite production essentially using the method of Wishnok et al. (Methods in Enzymology, 1996, 268, 130-151). In brief 50 μL of culture medium was mixed with 50 μL Griess reagent (i.e. a 1:1 mixture of 0.1% N-naphthylethylenediamine dihydrochloride and 1% sulfanilamide in 5% (v/v) phosphoric acid) and after 10 min the absorption was measured at 540 nm. The nitrite concentrations were calculated from a standard curve constructed, by instead of culture medium, adding 50 μL of between 3 to 100 μM of NaNO2 to the assays.

mouse B16 melanoma cells = test: Stimulation of cAMP-formation in mouse B16 melanoma cells; format: cell-based; settings: FIG. 3; both peptides at similar potencies and efficacies
Protocol: B16 mouse melanoma cells (B16-F1; CRL-6323, American Type Culture Collection, 12301 Parklawn Drive, Rockville, Md., 20852), were cultured in Dulbecco's modified Eagle medium (DMEM; Gibco BRA Gaithersburg, USA, cat no. 041-01966H) supplemented with 10% heat-inactivated fetal bovine serum, 100 IU penicillin/mL and 100 μg streptomycin/mL at 37° C. in a humidified atmosphere of 95% air and 5% CO2. Cells grown in monolayers were detached from 60-80% confluent adherent cultures using Hank's balanced salts containing 0.5 mM EDTA and collected by low speed centrifugation (700×g).
The cells were incubated for 30 min at 37° C. in DMEM containing 0.5 mM of the phosphodiesterase inhibitor 3-isobutyl-1-methyl-xanthine (IBMX). 20 μL aliquots of appropriate dilutions of test compounds in growth medium were prepared in 96 well microtitre plates The plates were then placed in a water bath at 37° C. and about 1.5×10^5 cells in 180 μL were quickly added to each well to obtain immediate mixing. […]
After completion of the incubations the solutions were rapidly filtered onto GF-B glassfibre filters (Whatman), followed by rapid washing of filters with 2 ml ice-cold washing buffer (50 mM Tris-Cl, pH 7.4). […] Radioactivity was counted using a β-counter. Cell experiments were determined in quadruplicates and standard curves in duplicates.

[6] = intraperitoneal, best effect at 0.5 mg/kg daily

Ki (human MC3-receptor): 7 nM
Ki (human MC4-receptor): 40 nM
% of 10 nM α-MSH (cAMP stimulation) (human MC1-receptor [1]; 10 nM compound): 89%
Ki (human MC1-receptor [2]): 0.2 nM
Ki (human MC5-receptor): 120 nM
Molecule: CC[C@H](C)[C@H](NC(=O)[C@H](CO)NC(=O)[C@@H](N)CO)C(=O)N[C@H](C(=O)N[C@@H](CO)C(=O)N[C@@H](Cc1c[nH]cn1)C(=O)N[C@H](Cc1ccccc1)C(=O)N[C@@H](CCCNC(=N)N)C(=O)N[C@@H](Cc1c[nH]c2ccccc12)C(=O)NCC(=O)N[C@@H](CCCCN)C(=O)N1CCC[C@H]1C(=O)N[C@H](C(N)=O)C(C)C)[C@@H](C)CC [MS09, Ser-Ser-Ile-Ile-Ser-His-dPhe-Arg-Trp-Gly-Lys-Pro-Val-NH2] (H-SSIISH[dF]RWGKPV-NH2)

Ki (human MC3-receptor): 1360 nM
fold lower affinity for the MC3 receptor than for the MC1-receptor (human MC3-receptor; ratio of Ki values): 1800 fold
Ki (human MC4-receptor): > 50000 nM
fold lower affinity for the MC4 receptor than for the MC1-receptor (human MC4-receptor; ratio of Ki values): more than 65000 fold
% of 10 nM α-MSH (cAMP stimulation) (human MC1-receptor [1]; 10 nM compound): 69%
Fold stimulation of cAMP (human MC1-receptor [1]; 10 nM compound): 4.6 ± 0.3 fold
Fold stimulation of cAMP (human MC1-receptor [1]; 1 μM compound): 6.7 ± 0.3 fold
Ki (human MC1-receptor [2]): 0.76 nM
Ki (human MC5-receptor): > 50000 nM
fold lower affinity for the MC5 receptor than for the MC1-receptor (human MC5-receptor; ratio of Ki values): more than 65000 fold
Molecule: SSIISHFRWGKPV-NH2 [MS05, L-seryl-L-seryl-L-Isoleucyl-L-isoleucyl-L-seryl -L-histidyl-L-phenylalanyl-L-arginyl-L-tryptophanyl-glycyl-L-lysyl-L-prolyl-L-valinamide]
inhibition of paw oedema (BALB/C mice; 0.05 mg/kg intraperitoneal): 3%
inhibition of paw oedema (BALB/C mice; 0.25 mg/kg intraperitoneal): 5%
inhibition of paw oedema (BALB/C mice; 0.37 mg/kg intraperitoneal): 12%
inhibition of paw oedema (BALB/C mice; 0.5 mg/kg intraperitoneal): 39%
inhibition of paw oedema (BALB/C mice; 0.75 mg/kg intraperitoneal): 10%
DNFB induced increase in blood platelet counts (BALB/C mice; intraperitoneal): returned towards the normal
DNFB induced increase in count of lymphocytes/monocytes in the blood (BALB/C mice; intraperitoneal): essentially returned to normal levels
DNFB induced increase in granulocyte counts of the blood (BALB/C mice; [6]): essentially normalized
DNFB induced increase in total white cell blood counts (BALB/C mice; [6]): essentially normalized
effect on cAMP levels in mouse RAW 264.7 cells [3]: marked increase in cAMP
TNF α upregulated expression of mRNA for ICAM-1, VCAM and E-Selectin [4]: inhibition of the upregulated expression of mRNA
TNF α upregulation of the ICAM-1, VCAM and E-Selectin proteins [4]: inhibition of the upregulation
inhibition of NO-production [5]: strong dose dependent inhibition
effect on cAMP levels in mouse B16 melanoma cells (mouse B16 melanoma cells): marked increase in cAMP
